Like-named read-outs stand apart in the source and are kept apart here.
Assays:
[1] = system: P. falciparum 3D7 parasites; test: P. falciparum growth inhibition assay, 1-cycle (72 h treatment), SYBR DNA staining (library screen at 2 μg/mL and dose-response); type: cell-based, Plasmodium falciparum; details: for activity at 2 µg/mL: Plasmodium falciparum
[2] = system: P. falciparum 3D7 parasites; test: P. falciparum growth inhibition assay, 2-cycle (120 h treatment), delayed-death screen and dose-response; type: cell-based, Plasmodium falciparum; details: for activity at 2 µg/mL: Plasmodium falciparum
[3] = system: T. gondii RH strain (RH-Tub-eYFP) tachyzoites; test: microbe, parasite or virus in culture; type: cell-based, Toxoplasma gondii; details: 72 h; for percent parasite growth at 2 µg/mL: Toxoplasma gondii
[4] = P. falciparum, 72 h, screen at 2 μg/mL, replicate 1
[5] = P. falciparum, 72 h, screen at 2 μg/mL, replicate 2
[6] = P. falciparum, 120 h, screen at 2 μg/mL, replicate 1
[7] = P. falciparum, 120 h, screen at 2 μg/mL, replicate 2
[8] = T. gondii, screen at 2 μg/mL, replicate 1
[9] = T. gondii, screen at 2 μg/mL, replicate 2
[10] = library screen at 2 μg/mL, 72 h, % growth, replicate 1
[11] = library screen at 2 μg/mL, 72 h, % growth, replicate 2
[12] = library screen at 2 μg/mL, 120 h, % growth, replicate 1
[13] = library screen at 2 μg/mL, 120 h, % growth, replicate 2
[14] = library screen at 2 μg/mL, % growth, replicate 1
[15] = library screen at 2 μg/mL, % growth, replicate 2
[16] = P. falciparum 3D7, 72 h, parasite screen at 2 μg/mL, % growth, replicate 1
[17] = P. falciparum 3D7, 72 h, parasite screen at 2 μg/mL, % growth, replicate 2
[18] = P. falciparum 3D7, 120 h, parasite screen at 2 μg/mL, % growth, replicate 1
[19] = P. falciparum 3D7, 120 h, parasite screen at 2 μg/mL, % growth, replicate 2
[20] = T. gondii, parasite screen at 2 μg/mL, % growth, replicate 1
[21] = T. gondii, parasite screen at 2 μg/mL, % growth, replicate 2
[22] = P. falciparum 3D7, 72 h, library screen at 2 μg/mL, % growth, replicate 1
[23] = P. falciparum 3D7, 72 h, library screen at 2 μg/mL, % growth, replicate 2
[24] = P. falciparum 3D7, 120 h, library screen at 2 μg/mL, % growth, replicate 1
[25] = P. falciparum 3D7, 120 h, library screen at 2 μg/mL, % growth, replicate 2
[26] = T. gondii RH, library screen at 2 μg/mL, % growth, replicate 1
[27] = T. gondii RH, library screen at 2 μg/mL, % growth, replicate 2
[28] = library screen at 2 μg/mL, % growth, replicate 1, read-out: Tg_72h_%Growth_Rep1
[29] = library screen at 2 μg/mL, % growth, replicate 2, read-out: Tg_72h_%Growth_Rep2
[30] = T. gondii, parasite screen 2 μg/mL, % growth, replicate 1, read-out: Tg_72h_%Growth_Rep1
[31] = T. gondii, parasite screen 2 μg/mL, % growth, replicate 2, read-out: Tg_72h_%Growth_Rep2

Molecule: CC1=CC2C(O)CCCC2C(C)(C(O)=C2C(=O)CNC2=O)C1CCC(C)C(O)/C(C)=C/CC(O)/C=C/C(C)C(O)/C=C/CC(O)/C=C/CC(O)CC1CCCN1C(=N)N (stereo not drawn) [TPU-0037C]
- Pf_72h_%Growth_Rep1 [1, 4]: 76.69%
- Pf_72h_%Growth_Rep2 [1, 5]: 109.21%
- Pf_120h_%Growth_Rep1 [2, 6]: 83.44%
- Pf_120h_%Growth_Rep2 [2, 7]: 78.76%
- Tg_72h_%Growth_Rep1 [3, 8]: 129.91%
- Tg_72h_%Growth_Rep2 [3, 9]: 76.44%

Molecule: COc1cc([C@H]2[C@@]3(O)C[C@H]4C[C@]2(O)[C@](O)(C(=O)O4)[C@H]3C(=O)c2ccccc2)oc(=O)c1 [Deoxyenterocin]
- Pf_72h_%Growth_Rep1 [1, 4]: 87.29%
- Pf_72h_%Growth_Rep2 [1, 5]: 90.62%
- Pf_120h_%Growth_Rep1 [2, 6]: 64.95%
- Pf_120h_%Growth_Rep2 [2, 7]: 102.75%
- Tg_72h_%Growth_Rep1 [3, 8]: 127.64%
- Tg_72h_%Growth_Rep2 [3, 9]: 104.18%

Molecule: Bafilomycin D
- Pf_72h_%Growth_Rep1 [1, 10]: 3.99%
- Pf_72h_%Growth_Rep2 [1, 11]: 4.20%
- Pf_120h_%Growth_Rep1 [2, 12]: 2.60%
- Pf_120h_%Growth_Rep2 [2, 13]: -8.55%
- Tg_72h_%Growth_Rep1 [3, 14]: 0.37%
- Tg_72h_%Growth_Rep2 [3, 15]: -0.37%

Molecule: C=C1NC(=O)[C@H](C(C)C)NC1=O [Cyclo(delta-Ala-L-Val)]
- Pf_72h_%Growth_Rep1 [1, 4]: 78.49%
- Pf_72h_%Growth_Rep2 [1, 5]: 81.94%
- Pf_120h_%Growth_Rep1 [2, 6]: 80.27%
- Pf_120h_%Growth_Rep2 [2, 7]: 78.77%
- Tg_72h_%Growth_Rep1 [3, 8]: 112.17%
- Tg_72h_%Growth_Rep2 [3, 9]: 87.98%

Molecule: O=c1[nH]c2ccccc2c(-c2ccccc2)c1O [Viridicatin]
- activity at 2 µg/mL ([1]; 3D7, P. falciparum, 72 h, screen at 2 μg/mL, replicate 1, read-out: Pf_72h_%Growth_Rep1): 91.8%
- activity at 2 µg/mL ([1]; 3D7, P. falciparum, 72 h, screen at 2 μg/mL, replicate 2, read-out: Pf_72h_%Growth_Rep2): 125%
- activity at 2 µg/mL ([2]; 3D7, P. falciparum, 120 h, screen at 2 μg/mL, replicate 1, read-out: Pf_120h_%Growth_Rep1): 106%
- activity at 2 µg/mL ([2]; 3D7, P. falciparum, 120 h, screen at 2 μg/mL, replicate 2, read-out: Pf_120h_%Growth_Rep2): 104%
- percent parasite growth at 2 µg/mL ([3]; T. gondii, screen at 2 μg/mL, replicate 1, read-out: Tg_72h_%Growth_Rep1): 145%
- percent parasite growth at 2 µg/mL ([3]; T. gondii, screen at 2 μg/mL, replicate 2, read-out: Tg_72h_%Growth_Rep2): 80.5%

Molecule: CCCCCCCC(=O)N[C@H]1CCOC1=O [BIA-O1496]
- Pf_72h_%Growth_Rep1 [1, 16]: 81.24%
- Pf_72h_%Growth_Rep2 [1, 17]: 83.86%
- Pf_120h_%Growth_Rep1 [2, 18]: 82.04%
- Pf_120h_%Growth_Rep2 [2, 19]: 138.56%
- Tg_72h_%Growth_Rep1 [3, 20]: 127.37%
- Tg_72h_%Growth_Rep2 [3, 21]: 91.78%

Molecule: CC(C=CC1OC(=O)C=CC1C)=CC(C)CC=CC(C)=CC(C)C(=O)C(C)C(O)C(C)CC(C)=CC(=O)O (stereo not drawn) [BIA-L1045]
- Pf_72h_%Growth_Rep1 [1, 22]: 49.36%
- Pf_72h_%Growth_Rep2 [1, 23]: 24.76%
- Pf_120h_%Growth_Rep1 [2, 24]: 60.90%
- Pf_120h_%Growth_Rep2 [2, 25]: 15.41%
- Tg_72h_%Growth_Rep1 [3, 26]: -0.52%
- Tg_72h_%Growth_Rep2 [3, 27]: -0.11%

Molecule: CCOC(=O)[C@H](Cc1ccccc1)NC(=O)c1cc(Cl)c2c(c1O)C(=O)O[C@H](C)C2 [BIA-O1589]
- Pf_72h_%Growth_Rep1 [1, 16]: 85.35%
- Pf_72h_%Growth_Rep2 [1, 17]: 104.78%
- Pf_120h_%Growth_Rep1 [2, 18]: 89.48%
- Pf_120h_%Growth_Rep2 [2, 19]: 144.99%
- Tg_72h_%Growth_Rep1 [3, 20]: 74.06%
- Tg_72h_%Growth_Rep2 [3, 21]: 66.00%

Molecule: CO[C@@H]1[C@H](OC(=O)/C=C/C=C/C=C/C=C/C(=O)O)CC[C@]2(CO2)[C@H]1[C@@]1(C)O[C@@H]1CC=C(C)C [Fumagillin]
- activity at 2 µg/mL ([1]; 3D7, 72 h, library screen at 2 μg/mL, 72 h, % growth, replicate 1, read-out: Pf_72h_%Growth_Rep1): 10.6%
- activity at 2 µg/mL ([1]; 3D7, 72 h, library screen at 2 μg/mL, 72 h, % growth, replicate 2, read-out: Pf_72h_%Growth_Rep2): 6.01%
- activity at 2 µg/mL ([2]; 3D7, 120 h, library screen at 2 μg/mL, 120 h, % growth, replicate 1, read-out: Pf_120h_%Growth_Rep1): 7.49%
- activity at 2 µg/mL ([2]; 3D7, 120 h, library screen at 2 μg/mL, 120 h, % growth, replicate 2, read-out: Pf_120h_%Growth_Rep2): 7.63%
- percent parasite growth at 2 µg/mL [3, 28]: 31%
- percent parasite growth at 2 µg/mL [3, 29]: 30.7%

Molecule: C=C(C)[C@@H]1CC[C@]2(C)CC[C@]3(C)[C@H](CC[C@@H]4[C@@]5(C)CC[C@H](O)C(C)(C)[C@@H]5CC[C@]43C)[C@@H]12 [BIA-L1759]
- Pf_72h_%Growth_Rep1 [1, 22]: 81.82%
- Pf_72h_%Growth_Rep2 [1, 23]: 111.85%
- Pf_120h_%Growth_Rep1 [2, 24]: 99.08%
- Pf_120h_%Growth_Rep2 [2, 25]: 111.54%
- Tg_72h_%Growth_Rep1 [3, 26]: 110.92%
- Tg_72h_%Growth_Rep2 [3, 27]: 91.52%

Molecule: O=C(c1cc(Cl)c(Cl)[nH]1)c1c(O)cccc1O [Pyoluteorin]
- activity at 2 µg/mL ([1]; 3D7, 72 h, P. falciparum, 72 h, parasite screen 2 μg/mL, % growth, replicate 1, read-out: Pf_72h_%Growth_Rep1): 12.8%
- activity at 2 µg/mL ([1]; 3D7, 72 h, P. falciparum, 72 h, parasite screen 2 μg/mL, % growth, replicate 2, read-out: Pf_72h_%Growth_Rep2): 3.08%
- activity at 2 µg/mL ([2]; 3D7, 120 h, P. falciparum, 120 h, parasite screen 2 μg/mL, % growth, replicate 1, read-out: Pf_120h_%Growth_Rep1): 21.2%
- activity at 2 µg/mL ([2]; 3D7, 120 h, P. falciparum, 120 h, parasite screen 2 μg/mL, % growth, replicate 2, read-out: Pf_120h_%Growth_Rep2): 3.32%
- percent parasite growth at 2 µg/mL [3, 30]: -1.3%
- percent parasite growth at 2 µg/mL [3, 31]: -1.92%

Molecule: COc1cc(/C=C/C(=O)O)ccc1O [Ferulic acid]
- Pf_72h_%Growth_Rep1 [1, 10]: 82.96%
- Pf_72h_%Growth_Rep2 [1, 11]: 102.51%
- Pf_120h_%Growth_Rep1 [2, 12]: 78.07%
- Pf_120h_%Growth_Rep2 [2, 13]: 101.86%
- Tg_72h_%Growth_Rep1 [3, 14]: 101.17%
- Tg_72h_%Growth_Rep2 [3, 15]: 94.55%

Molecule: CC1(C)C[C@]23[C@@H]4COC(=O)[C@H]2CC[C@H]1[C@@H]3CC4=O [Quadrone]
- activity at 2 µg/mL ([1]; 3D7, P. falciparum, 72 h, parasite screen 2 μg/mL, % growth, replicate 1, read-out: Pf_72h_%Growth_Rep1): 19%
- activity at 2 µg/mL ([1]; 3D7, P. falciparum, 72 h, parasite screen 2 μg/mL, % growth, replicate 2, read-out: Pf_72h_%Growth_Rep2): 18.9%
- activity at 2 µg/mL ([2]; 3D7, P. falciparum, 120 h, parasite screen 2 μg/mL, % growth, replicate 1, read-out: Pf_120h_%Growth_Rep1): 7%
- activity at 2 µg/mL ([2]; 3D7, P. falciparum, 120 h, parasite screen 2 μg/mL, % growth, replicate 2, read-out: Pf_120h_%Growth_Rep2): 13.5%
- percent parasite growth at 2 µg/mL [3, 30]: 48.4%
- percent parasite growth at 2 µg/mL [3, 31]: 61.5%

Molecule: C=C1CC[C@H]2C(C)(C)CCC[C@]2(C)[C@H]1C[C@@]12C[C@H]3C(=O)N4CCC[C@H]4C(=O)N3[C@@H]1Nc1ccccc12 [Drimentine C]
- activity at 2 µg/mL ([1]; 3D7, library screen at 2 μg/mL, 72 h, % growth, replicate 1, read-out: Pf_72h_%Growth_Rep1): 85.2%
- activity at 2 µg/mL ([1]; 3D7, library screen at 2 μg/mL, 72 h, % growth, replicate 2, read-out: Pf_72h_%Growth_Rep2): 87.9%
- activity at 2 µg/mL ([2]; 3D7, library screen at 2 μg/mL, 120 h, % growth, replicate 1, read-out: Pf_120h_%Growth_Rep1): 78.4%
- activity at 2 µg/mL ([2]; 3D7, library screen at 2 μg/mL, 120 h, % growth, replicate 2, read-out: Pf_120h_%Growth_Rep2): 103%
- percent parasite growth at 2 µg/mL [3, 28]: 91.6%
- percent parasite growth at 2 µg/mL [3, 29]: 73.3%

Molecule: Albofungin
- Pf_72h_%Growth_Rep1 [1, 10]: 6.93%
- Pf_72h_%Growth_Rep2 [1, 11]: 9.97%
- Pf_120h_%Growth_Rep1 [2, 12]: -0.91%
- Pf_120h_%Growth_Rep2 [2, 13]: 21.65%
- Tg_72h_%Growth_Rep1 [3, 14]: -0.16%
- Tg_72h_%Growth_Rep2 [3, 15]: 2.30%

Molecule: COC1=C(OC)C(=O)C(C)=CC1=O [Fumigatin methylether]
- Pf_72h_%Growth_Rep1 [1, 10]: 10.44%
- Pf_72h_%Growth_Rep2 [1, 11]: 11.19%
- Pf_120h_%Growth_Rep1 [2, 12]: 25.98%
- Pf_120h_%Growth_Rep2 [2, 13]: 27.21%
- Tg_72h_%Growth_Rep1 [3, 14]: 59.41%
- Tg_72h_%Growth_Rep2 [3, 15]: 97.15%

From paper PMC12396409, “Screening and hit evaluation of a microbial metabolite library against the pathogenic Plasmodium falciparum and Toxoplasma gondii parasites” (International Journal for Parasitology: Drugs and Drug …, 2025)
